Assays:
Assay type in all cases: cell-based, human
[1] = system: Target C; assay: HiBiT protein abundance assay, Target C; settings: Homo sapiens, K562, 24 h, modified K562 cells
Experimental: • Promega Nano-Glo HiBiT Lytic Detection System (cat #N3030) • Coming 384-well TC-treated microplates (cat #3570) • Synthego Engineered Cells Knock-In Clones
(§1) Cells were maintained in IMIDM with 10% FBS. Before the assay, cells were diluted with […] growth media (IMIDM+[…] media) and were seeded in a 384-well plate at a density of 10000 cells/well (for each cell line listed in Table 12). Each compound was prepared as a 10-point 3-fold serial dilution in DMSO with the top dose at a final concentration of 10 μM in the well. Unmodified K562 cells were added at the previously specified density with DMSO to serve as an assay baseline and positive control (PC) and DMSO only with the respective modified cell lines was added to the negative control (NC) columns. Final DMSO concentration was kept at or below 0.25%. Treated cell plates were placed in an incubator at 37° C. with 5% CO2 for 24 hours. After 24 hours, 25 μL of Complete HiBit Lytic reagent was added to each well at room temperature (e.g. one plate requiring 10 mL Lytic Buffer, 100 μL LgBiT Protein, 200 μL Lytic Substrate), shaken for 5 minutes at 600 RPM, then left to sit for 10 minutes for signal to stabilize before reading on a Spark Cyto plate reader (Tecan) with a 500 ms measurement time.
(§2) To determine compound effects on protein abundance of each target in Table 12, the percent response for each respective cell line was calculated at each compound concentration as follows:
(§3) For the normalized response at each concentration, a four-parameter logistical regression was fit to the data and the response was interpolated at the 50% value to determine a concentration for protein abundance at 50% (IC50) the untreated control.

[2] = system: MYB; assay: HiBiT protein abundance assay, MYB; settings: Homo sapiens, K562, 24 h, modified K562 cells
Experimental: (§4) Compounds described herein were used to screen for effects on quantitative protein abundance using a HiBit assay system (Promega). Quantitative protein abundance was determined by measuring the protein levels of HiBit-tagged protein targets expressed in cell culture via luminescence using the Nano-Glo HiBiT Lytic Detection System, which uses a split complementation assay format to reconstitute NanoBiT enzyme to generate a luminescent signal. A protein abundance assay was developed such that endogenous protein targets could be modified with the HiBiT peptide tag and their abundance could be assessed after compound treatment. Briefly, K562 cell lines containing a HiBiT-modification were treated with various compounds described herein (e.g., compounds of Formulas (I), (II), or (III)). After treatment for 24 hours, the protein abundance of a specific target was determined by measuring luminescence.
as §1, §2, §3

[3] = system: HTT; assay: HiBiT protein abundance assay, HTT; settings: modified K562 cells
Experimental: as §4, §1, §2, §3

[4] = system: MYB; assay: Splicing RT-qPCR assay, MYB mRNA canonical junction (CJ) and alternative junction (AJ); settings: for AC50: increase in AJ mRNA
Experimental: Compounds described herein were used to modulate RNA transcript abundance in cells. The expression of a target mRNA was measured by detecting the formation of an exon-exon junction in the canonical transcript (CJ). A compound mediated exon-inclusion event was detected by observing an increase in formation of a new junction with an alternative exon (AJ). Real-time qPCR assays were used to detect these splicing switches and interrogate the potency of various compounds towards different target genes. A high-throughput real time quantitative PCR (RT-qPCR) assay was developed to measure these two isoforms of the mRNA (CJ and AJ) for exemplary genes, such as HTT, SMN2, and MYB, together with a control housekeeping gene, GAPDH or GUSB or PPIA, used for normalization. Briefly, the A673 or K562 cell line was treated with various compounds described herein (e.g., compounds of Formula (I)). After treatment, the levels of the HTT, MYB, or SMN2 mRNA targets were determined from each sample of cell lysate by cDNA synthesis followed by qPCR.
The A673 cell line was cultured in DMEM with 10% FBS. Cells were diluted with full growth media and plated in a 96-well plate (15,000 cells in 100 ul media per well). The plate was incubated at 37° C. with 5% CO2 for 24 hours to allow cells to adhere. An 11-point 3-fold serial dilution of the compounds was made in DMSO then diluted in media in an intermediate plate. Compounds were transferred from the intermediate plate to the cell plate with the top dose at a final concentration of 10 uM in the well. Final DMSO concentration was kept at or below 0.25%. The cell plate was returned to the incubator at 37° C. with 5% CO2 for an additional 24 hours.
The K562 cell line was cultured in IMDM with 10% FBS. For K562, cells were diluted with full growth media and plated in either a 96-well plate (50,000 cells in 50 uL media per well) or a 384-well plate (8,000-40,000 cells in 45 uL media per well). An 11-point 3-fold serial dilution of the compounds were made in DMSO then diluted in media in an intermediate plate. Compound was transferred from the intermediate plate to the cell plate with the top dose at a final concentration of 10 uM in the well. Final DMSO concentration was kept at or below 0.25%. Final volume was 100 uL for 96-well plate and 50 uL for 384-well plate. The cell plate was then placed in an incubator at 37° C. with 5% CO2 for 24 hours.
The cells were then gently washed with 50 uL-100 uL cold PBS before proceeding to addition of lysis buffer. 30 uL-50 μL of room temperature lysis buffer with DNAse I (and optionally RNAsin) was added to each well. Cells were shaken/mixed thoroughly at room temperature for 5-10 minutes for lysis to take place and then 3 uL-5 μL of room temperature stop solution was added and wells were shaken/mixed again. After 2-5 minutes, the cell lysate plate was transferred to ice for RT-qPCR reaction setup. The lysates could also be frozen at −80° C. for later use.
In some cases, a direct lysis buffer was used. An appropriate volume of 3× lysis buffer (10 mM Tris, 150 mM NaCl, 1.5%-2.5% Igepal and 0.1-1 U/uL RNAsin, pH 7.4) was directly added to either K562 or A673 cells in media and mixed by pipetting 3 times. The plates were then incubated at room temperature with shaking/rocking for 20-50 minutes to allow for lysis to take place. After this time, the cell lysate plate was transferred to ice to set up for the RT-qPCR reactions. The lysates could also be frozen at −80° C. for later use.
To set up 10 uL RT-qPCR reactions, cell lysates were transferred to 384-well qPCR plates containing the master mix according to the table below. The plates were sealed, gently vortexed, and spun down before the run. The volumes were adjusted accordingly in some instances where the reaction was carried in 20 μL. The table below summarizes the components of the RT-qPCR reactions:
The RT-qPCR reaction was performed using a QuantStudio (ThermoFisher) under the following fast cycling conditions. […]

[5] = Homo sapiens, K562, 24 h, Table 13A
[6] = Homo sapiens, 24 h, decrease in CJ mRNA, A673 or K562 cells, 24 hours treatment, RT-qPCR, read-out: MYB CJ IC50
[7] = Homo sapiens, 24 h, A673 or K562 cells, 24 hours treatment, RT-qPCR
[8] = Homo sapiens, RT-qPCR panel, canonical junction mRNA, compound concentration having 50% response in CJ decrease, read-out: MYB IC50 (decrease in CJ mRNA levels)
[9] = Homo sapiens, K562, 24 h, Table 13B

Row | SMILES | IC50 ([1]; Table 13A) | IC50 ([2]; Table 13A) | IC50 [3, 5] | further results
1 | C[C@@H]1C[C@H](N(C)c2ccc(-c3ccc(-c4cn[nH]c4)c4cn[nH]c34)nn2)CCN1 [Compound 101] | 1 to 10 µM | 1 to 10 µM | 1 to 10 µM | –
2 | C[C@@H]1C[C@H](N(C)c2ccc(-c3ccc(-n4cccn4)c4cn[nH]c34)nn2)CCN1 [Compound 103] | 1 to 10 µM | 1 to 10 µM | 1 to 10 µM | –
3 | C[C@@H]1C[C@@H](N(C)c2ccc(-c3ccc(-c4cn[nH]c4)c4cc[nH]c34)nn2)CCN1 [Compound 107] | 1 to 10 µM | 1 to 10 µM | 1 to 10 µM | –
4 | C[C@H]1C[C@@H](N(C)c2ccc(-c3ccc(-c4cn[nH]c4)c4cc[nH]c34)nn2)CCN1 [Compound 108] | > 10 µM | > 10 µM | > 10 µM | IC50 [4, 6]: > 10 µM; AC50 [4, 7]: > 10 µM; IC50 [4, 8]: > 10 µM
5 | C[C@@H]1C[C@@H](N(C)c2ccc(-c3ccc(-n4cccn4)c4cc[nH]c34)nn2)CCN1 [Compound 110] | 1 to 10 µM | 1 to 10 µM | 1 to 10 µM | –
6 | CN(c1ccc(-c2ccc(-c3cn[nH]c3)c3cc[nH]c23)nn1)[C@@H]1C[C@H]2CC[C@@H](C1)N2 [Compound 112] | 1 to 10 µM | 1 to 10 µM | 1 to 10 µM | IC50 [4, 6]: 1 to 10 µM; AC50 [4, 7]: 1 to 10 µM; IC50 [4, 8]: 1 to 10 µM
7 | CN(c1ccc(-c2ccc(-n3cccn3)c3cc[nH]c23)nn1)[C@@H]1C[C@H]2CC[C@@H](C1)N2 [Compound 113] | 1 to 10 µM | 1 to 10 µM | 1 to 10 µM | IC50 [4, 6]: > 10 µM; AC50 [4, 7]: > 10 µM; IC50 [4, 8]: > 10 µM
8 | C[C@@H]1C[C@H](N(C)c2ccc(-c3ccc(-c4cn[nH]c4)c4nn[nH]c34)nn2)CCN1 [Compound 115] | > 10 µM | > 10 µM | > 10 µM | IC50 [4, 6]: > 10 µM; AC50 [4, 7]: > 10 µM; IC50 [4, 8]: > 10 µM
9 | C[C@@H]1C[C@H](N(C)c2ccc(-c3ccc(-c4cn[nH]c4)c4c3NC(=O)C4)nn2)CCN1 [Compound 121] | > 10 µM | > 10 µM | > 10 µM | IC50 [4, 6]: > 10 µM; AC50 [4, 7]: > 10 µM; IC50 [4, 8]: > 10 µM
10 | CN(c1ccc(-c2ccc(-c3cn[nH]c3)c3c2NC(=O)C3)nn1)[C@@H]1C[C@H]2CC[C@@H](C1)N2 [Compound 123] | > 10 µM | > 10 µM | > 10 µM | –
11 | CC1(C)CC(Oc2ccc(-c3ccc(-n4cccn4)c4cn[nH]c34)nn2)CC(C)(C)N1 [Compound 151] | 0.1 to 1 µM | 0.1 to 1 µM | 0.1 to 1 µM | –
12 | c1cnn(-c2ccc(-c3ccc(O[C@@H]4C[C@H]5CC[C@@H](C4)N5)nn3)c3[nH]ncc23)c1 [Compound 152] | < 0.1 µM | 0.1 to 1 µM | < 0.1 µM | –
13 | CN(c1ccc(-c2ccc(-c3cn[nH]c3)c3nc[nH]c23)nn1)[C@@H]1C[C@H]2CC[C@@H](C1)N2 [Compound 163] | > 10 µM | > 10 µM | > 10 µM | –
14 | CN(c1ccc(-c2ccc(-c3cn(C)nn3)c3cn[nH]c23)nn1)[C@@H]1C[C@H]2CC[C@@H](C1)N2 [Compound 165] | 1 to 10 µM | 1 to 10 µM | 1 to 10 µM | –
15 | c1nc2c(-c3cn[nH]c3)ccc(-c3ccc(O[C@@H]4C[C@H]5CCC[C@@H](C4)N5)nn3)c2s1 [Compound 209] | < 0.1 µM | 0.1 to 1 µM | < 0.1 µM | –
16 | c1nc2c(-c3cn[nH]c3)ccc(-c3ccc(N4C[C@H]5CNC[C@H]5C4)nn3)c2s1 [Compound 282] | > 10 µM | 1 to 10 µM | 1 to 10 µM | –
17 | [2H]C([2H])([2H])N(c1ccc(-c2ccc(-c3cn[nH]c3)c3cn[nH]c23)nn1)[C@@H]1C[C@H]2CC[C@@H](C1)N2 [Compound 299] | < 0.1 µM | < 0.1 µM | < 0.1 µM | –
18 | Cc1cc(-c2ccc(-c3ccc(N(C)[C@@H]4C[C@H]5CC[C@@H](C4)N5)nn3)c3[nH]ncc23)cnn1 [Compound 383, (exo)-N-methyl-N-{6-[4-(6-methylpyridazin-4-yl)-1H-indazol-7-yl]pyridazin-3-yl}-8-azabicyclo[3.2.1]octan-3-amine] | 1 to 10 µM | 1 to 10 µM | 1 to 10 µM | –
19 | c1nc2c(-c3cn[nH]c3)ccc(-c3ccc(N(C4CC4)[C@@H]4C[C@H]5CC[C@@H](C4)N5)nn3)c2s1 [Compound 389, (exo)-N-cyclopropyl-N-{6-[4-(1H-pyrazol-4-yl)-1,3-benzothiazol-7-yl]pyridazin-3-yl}-8-azabicyclo [3.2.1] octan-3-amine] | < 0.1 µM | 0.1 to 1 µM | 0.1 to 1 µM | –
20 | c1nc2c(-c3cn[nH]c3)ccc(-c3cnc(N4CCN[C@H](C5CC5)C4)nn3)c2s1 [Compound 553] | – | – | – | IC50 ([4]; RT-qPCR panel, canonical junction mRNA, compound concentration having 50% response in CJ decrease, read-out: MYB IC50 (decrease in CJ mRNA levels)): 1 to 10 µM; IC50 ([3]; Table 13A, 24 hours): 1 to 10 µM
21 | CN(c1ccc(-c2ccc(-c3cn[nH]c3)c(=O)[nH]2)nn1)[C@@H]1C[C@H]2CC[C@@H](C1)N2 [Compound 904] | – | – | – | IC50 ([1]; Table 13B): > 10 µM; IC50 ([2]; Table 13B): > 10 µM; IC50 [3, 9]: > 10 µM
22 | CN(c1ccc(-c2ccc(-n3cccn3)c(=O)[nH]2)nn1)[C@@H]1C[C@H]2CC[C@@H](C1)N2 [Compound 905] | – | – | – | IC50 ([1]; Table 13B): 0.1 to 1 µM; IC50 ([2]; Table 13B): 1 to 10 µM; IC50 [3, 9]: 0.1 to 1 µM

From patent US20240368163A1, “COMPOUNDS AND METHODS FOR MODULATING SPLICING” (REMIX THERAPEUTICS INC., priority 2021, published 2024)
